Values quoted from earlier work, collected in US20160375234A1, “[…] METHODS AND COMPOSITIONS FOR DIAGNOSING AND TREATING BREAST CONDITIONS” (ATOSSA GENETIC INC., priority 2014, published 2016).

System: early-stage, HER2-overexpressing or -amplified breast cancer
Settings: patients with early-stage, presurgical

## CS(=O)(=O)CCNCc1ccc(-c2ccc3ncnc(Nc4ccc(OCc5cccc(F)c5)c(Cl)c4)c3c2)o1 [lapatinib]
  growth of breast premalignancy (including ADH and DCIS) and invasive cancer: suppressed growth
